What was measured:
Assay type in all cases: biochemical
SSU72 = molecular target: T1, SSU72 (Homo sapiens, UniProt Q9NP77); assay: Tyrosine phosphatase selectivity (pNPP substrate), SSU72; details: for IC50: SSU72, pNPP substrate; for IC50PTP/IC50SHP2 SSU72: selectivity ratio SSU72 over SHP2
T1 construct: made in house; host or cells: E. coli
T1 sequence (Q9NP77 1-194): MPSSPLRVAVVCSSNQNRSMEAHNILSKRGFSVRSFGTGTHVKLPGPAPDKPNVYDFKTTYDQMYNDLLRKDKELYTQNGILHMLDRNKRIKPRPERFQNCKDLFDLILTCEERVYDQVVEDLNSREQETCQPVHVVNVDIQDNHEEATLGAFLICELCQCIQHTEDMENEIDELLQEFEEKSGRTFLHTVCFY
Experimental: (§1) This experiment evaluated the selectivity of the disclosed compounds against tyrosine phosphatases, including SHP1, HePTP, Laforin, LMWPTP, LYP, PTP1B, PRL2, SSU72, VHR, FAP1, STEP, CDC14A, CD45, MEG2, and PP5, all expressed and purified from E. coli.
(§2) Phosphatase activity was measured using p-nitrophenyl phosphate (pNPP) (Fisher Scientific) as the substrate in 50 mM 3,3-dimethylglutaric acid buffer (pH 7.0, containing 1 mM EDTA), with ionic strength adjusted to 0.15 M with NaCl. […] After 10-60 minutes, the reaction was quenched by adding 20 µL of 5 N NaOH. Wells without enzyme were used as controls for correction. The amount of the product, p-nitrophenol, was determined by measuring the absorbance at 405 nm using a Spectra MAX340 microplate spectrophotometer (Molecular Devices), with a molar extinction coefficient of 18000 M^-1cm^-1.
(§3) Data were analyzed using GraphPad Prism software. Dose-response curves were obtained by fitting data using the nonlinear S-curve regression Dose-response-inhibition equation, and IC50 values were calculated.

STEP = molecular target: T2, STEP (Homo sapiens, UniProt P54829); assay: Tyrosine phosphatase selectivity (pNPP substrate), STEP; details: for IC50: STEP, pNPP substrate; for IC50PTP/IC50SHP2 STEP: selectivity ratio STEP over SHP2
T2 construct: made in house; host or cells: E. coli
T2 sequence (P54829 1-565): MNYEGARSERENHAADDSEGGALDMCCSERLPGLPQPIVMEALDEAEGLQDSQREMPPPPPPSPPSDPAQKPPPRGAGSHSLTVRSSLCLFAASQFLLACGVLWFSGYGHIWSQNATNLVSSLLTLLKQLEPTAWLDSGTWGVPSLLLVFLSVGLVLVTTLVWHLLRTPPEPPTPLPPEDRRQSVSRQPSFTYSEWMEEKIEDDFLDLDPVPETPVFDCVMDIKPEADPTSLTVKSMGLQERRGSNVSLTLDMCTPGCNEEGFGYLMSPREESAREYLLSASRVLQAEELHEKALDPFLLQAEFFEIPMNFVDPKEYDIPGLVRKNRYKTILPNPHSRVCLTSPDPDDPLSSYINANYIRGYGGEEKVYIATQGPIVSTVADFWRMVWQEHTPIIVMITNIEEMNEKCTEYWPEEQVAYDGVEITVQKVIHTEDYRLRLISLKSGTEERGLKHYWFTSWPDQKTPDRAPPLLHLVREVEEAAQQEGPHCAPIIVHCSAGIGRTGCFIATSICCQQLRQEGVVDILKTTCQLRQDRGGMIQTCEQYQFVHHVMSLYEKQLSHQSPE
Experimental: as §1, §2, §3

LYP = molecular target: T3, LYP (Homo sapiens, UniProt Q9Y2R2); assay: Tyrosine phosphatase selectivity (pNPP substrate), LYP; details: for IC50: LYP, pNPP substrate; for IC50PTP/IC50SHP2 LYP: selectivity ratio LYP over SHP2
T3 construct: made in house; host or cells: E. coli
T3 sequence (Q9Y2R2 1-807): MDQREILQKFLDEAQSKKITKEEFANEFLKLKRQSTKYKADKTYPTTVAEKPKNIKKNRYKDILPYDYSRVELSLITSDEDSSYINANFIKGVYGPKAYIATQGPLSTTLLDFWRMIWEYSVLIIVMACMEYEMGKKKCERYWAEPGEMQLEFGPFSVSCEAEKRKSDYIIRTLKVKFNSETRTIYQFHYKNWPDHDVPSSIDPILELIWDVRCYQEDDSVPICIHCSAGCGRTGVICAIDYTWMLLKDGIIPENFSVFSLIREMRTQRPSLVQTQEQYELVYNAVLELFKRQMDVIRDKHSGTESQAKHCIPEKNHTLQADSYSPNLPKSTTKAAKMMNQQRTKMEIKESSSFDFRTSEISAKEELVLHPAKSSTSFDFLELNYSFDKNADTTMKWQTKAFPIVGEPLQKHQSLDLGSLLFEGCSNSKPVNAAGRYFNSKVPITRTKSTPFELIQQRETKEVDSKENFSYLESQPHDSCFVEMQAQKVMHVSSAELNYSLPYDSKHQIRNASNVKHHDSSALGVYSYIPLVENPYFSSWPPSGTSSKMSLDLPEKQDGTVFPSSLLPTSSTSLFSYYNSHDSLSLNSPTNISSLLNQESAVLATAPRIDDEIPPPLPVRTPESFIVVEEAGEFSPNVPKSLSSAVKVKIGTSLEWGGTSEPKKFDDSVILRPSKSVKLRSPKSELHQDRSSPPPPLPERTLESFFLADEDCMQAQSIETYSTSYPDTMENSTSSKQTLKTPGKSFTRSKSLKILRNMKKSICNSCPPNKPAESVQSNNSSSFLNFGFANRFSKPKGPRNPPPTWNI
Experimental: as §1, §2, §3

MEG2 = molecular target: T4, MEG2 (Homo sapiens, UniProt P43378); assay: Tyrosine phosphatase selectivity (pNPP substrate), MEG2; details: for IC50: MEG2, pNPP substrate; for IC50PTP/IC50SHP2 MEG2: selectivity ratio MEG2 over SHP2
T4 construct: made in house; host or cells: E. coli
T4 sequence (P43378 1-593): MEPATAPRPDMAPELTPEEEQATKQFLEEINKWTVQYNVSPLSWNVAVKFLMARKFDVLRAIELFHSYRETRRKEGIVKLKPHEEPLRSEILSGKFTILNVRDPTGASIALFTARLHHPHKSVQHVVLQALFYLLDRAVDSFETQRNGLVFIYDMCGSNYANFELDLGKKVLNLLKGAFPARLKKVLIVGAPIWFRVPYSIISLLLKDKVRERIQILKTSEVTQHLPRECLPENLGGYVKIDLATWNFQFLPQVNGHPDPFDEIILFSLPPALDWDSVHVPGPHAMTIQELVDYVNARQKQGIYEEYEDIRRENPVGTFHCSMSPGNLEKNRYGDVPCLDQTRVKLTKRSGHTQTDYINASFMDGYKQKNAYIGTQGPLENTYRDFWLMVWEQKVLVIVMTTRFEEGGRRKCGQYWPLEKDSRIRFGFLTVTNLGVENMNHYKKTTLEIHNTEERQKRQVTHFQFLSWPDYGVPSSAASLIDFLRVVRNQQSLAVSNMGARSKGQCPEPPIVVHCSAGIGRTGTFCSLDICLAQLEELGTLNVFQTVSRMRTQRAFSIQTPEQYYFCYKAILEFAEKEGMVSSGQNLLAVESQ
Experimental: as §1, §2, §3

IC50 (SSU72) | IC50PTP/IC50SHP2 SSU72 (SSU72) | IC50 (STEP) | IC50PTP/IC50SHP2 STEP (STEP) | IC50 (LYP) | IC50PTP/IC50SHP2 LYP (LYP) | IC50 (MEG2) | IC50PTP/IC50SHP2 MEG2 (MEG2) | Compound
0.016 µM | 0.47 | 6.94 µM | 204.1 | 0.076 µM | 2.2 | 1.77 µM | 52.0 | O=C(Nc1ccc(-c2cc3cc(F)c(-c4nnn[nH]4)cc3n2C2CCC2)cc1)C(=O)Nc1ccc(N2CCC3(CCOC3)CC2)cc1 [Example 67]
 |  | 8.23 µM | 171.5 | 1.54 µM | 32.1 | 0.89 µM | 18.5 | CC1(n2c(-c3ccc(NC(=O)C(=O)Nc4ccc(N5CCC6(CCOC6)CC5)cc4)cc3)cc3cc(F)c(-c4nnn[nH]4)cc32)CCC1 [Example 68]
0.09 µM | 1.2 | 1.83 µM | 25.4 | 0.1 µM | 1.3 | 1.66 µM | 23.0 | O=C(Nc1ccc(-c2cc3cc(F)c(-c4nnn[nH]4)cc3n2C2CCC2)cc1)C(=O)Nc1ccc(N2CC3COCC3C2)cc1 (stereo not shown) [Example 114]
> 100 µM | 709.2 | 15.5 µM | 109.9 | 1.07 µM | 7.6 | 2.41 µM | 17.1 | Cn1cc(-c2ccc(NC(=O)C(=O)Nc3ccc(-c4cc5cc(F)c(-c6noc(=O)[nH]6)cc5n4C4CCC4)cc3)cc2)cn1 [Example 123]
> 100 µM | 139.7 | > 100 µM | 139.7 | > 100 µM | 139.7 | > 100 µM | 139.7 | Cn1cc(-c2ccc(NC(=O)C(=O)Nc3ccc(-c4cc5cc(F)c(-c6nnc(C(F)(F)F)[nH]6)cc5n4C4CCC4)cc3)cc2)cn1 [Example 124]
< 3 µM | 120 | < 3 µM | 120 | 1.2 µM | 48 | < 3 µM | 120 | O=C(Nc1ccc(-c2ccsc2)cc1)C(=O)Nc1ccc(-c2oc3cc(F)c(-c4nnn[nH]4)cc3c2C2CCC2)cc1 [Example 130]
< 3 µM | 115.4 | 8.4 µM | 323.1 | 0.5 µM | 19.2 | 9.9 µM | 380.8 | O=C(Nc1ccc(-c2ccsc2)cc1)C(=O)Nc1ccc(-c2cc3cnc(-c4nnn[nH]4)nc3n2C2CCC2)cc1 [Example 131]
< 3 µM | 111.1 | 10.6 µM | 392.6 | 0.5 µM | 18.5 | 15.1 µM | 559.3 | O=C(Nc1ccc(-c2ccsc2)cc1)C(=O)Nc1ccc(-c2cc3cc(F)c(-c4nnn[nH]4)nc3n2C2CCC2)cc1 [Example 132]

Continued, compound first:

Compound | IC50 (SSU72) | IC50PTP/IC50SHP2 SSU72 (SSU72) | IC50 (STEP) | IC50PTP/IC50SHP2 STEP (STEP) | IC50 (LYP) | IC50PTP/IC50SHP2 LYP (LYP) | IC50 (MEG2) | IC50PTP/IC50SHP2 MEG2 (MEG2)
O=C(Nc1ccc(-c2ccsc2)cc1)C(=O)Nc1ccc(-c2cc3cc(F)c(-c4nnn[nH]4)cc3n2C2CCC2)cc1 [Example 4] | < 3 µM | 103.4 | 4.5 µM | 155.2 | 0.5 µM | 17.2 | 22.1 µM | 762.1
Cn1c(-c2cccc(NC(=O)C(=O)Nc3ccc(-c4ccsc4)cc3)c2)c(I)c2cc(C(=O)O)c(O)cc21 [Example 11a-1, reference compound] | 1.3 µM | 12.0 | 4 µM | 37.0 | 1.05 µM | 9.7 |  | 
O=C(Nc1ccc(-c2cc3cc(F)c(-c4nnn[nH]4)cc3n2C2CCC2)cc1)C(=O)Nc1ccc(N2CCOCC2)cc1 [Example 47] | 0.09 µM | 1.4 | 0.77 µM | 12.2 | 0.189 µM | 3.0 | 0.99 µM | 15.7
O=C(Nc1ccc(-c2oc3cc(F)c(-c4nnn[nH]4)cc3c2C2CCC2)cc1)C(=O)Nc1ccc(N2CCC3(CCOC3)CC2)cc1 [Example 125] | > 100 µM | 1960.8 | 6.62 µM | 129.8 | 2.5 µM | 49.0 | 8.54 µM | 167.5
O=C(Nc1ccc(-c2ccsc2)cc1)C(=O)Nc1ccc(-c2cc3ccc(-c4nnn[nH]4)nc3n2C2CCC2)cc1 [Example 129] | 35.8 µM | 606.8 | < 3 µM | 50.8 | 1.2 µM | 20.3 | 7.2 µM | 122.0
